According to patent US20220154247A1, “ULTRASENSITIVE METHOD FOR DETECTING CELL DEATH” (priority 2019, published 2022):
Entries after “also recorded” stand apart in the source; their conditions may differ.

Legend:
MOLM14 cells = experiment: Annexin V/propidium iodide labeling, flow cytometry, percentage of apoptotic cells; format: cell-based; settings: MOLM14 cells treated 16 h with 0-10 μM etoposide; no plateau with the PCR method
Description: The cells are washed with PBS then resuspended in 1× binding buffer at a concentration of 1×10^6 cells/ml. 10 μl of Annexin V Pacific Blue and 10 μl of propidium iodide (Biolegend kit) are added to 200 μl of this cell suspension, which is then incubated for 15 minutes in darkness and at ambient temperature. After centrifugation at 300 g for 5 min, the supernatant is gently aspirated and 500 μl of 1× binding buffer are added.
These cells are then used in flow cytometry for determining the effect of the treatment and the number of cells in apoptosis. These cells are sorted depending on their annexin V and propidium iodide statuses in order to then carry out a PCR.
MOLM14 cells are left untreated (NT) or treated for 16 h with increasing concentrations of etoposide (0-0.62-1.25-2.5-5 or 10 μM).
The cells are labeled using the Pacific Blue™ Annexin V kit (Biolegend) according to the supplier's recommendations and then analyzed by flow cytometry (MACSQuant VYB—Miltenyi Biotec). The percentage of positive apoptotic cells (annexin V) is determined.

MDA-MB-231 cells = experiment: DNA fragments in the cytoplasmic fraction detected by capillary electrophoresis (fragment analyzer); format: cell-based; settings: MDA-MB-231 cells treated 24 h with 50 or 100 nM staurosporine, compared to untreated cells
Description: MDA-MB-231 cells were inoculated in 6 [MUT] at an amount of 3 million cells per 35 ml of DMEM high glucose medium (10% FCS, P/S). The next day, the MDA-MB-231 cells were treated with 50 nM and 100 nM staurosporine. The medium of the 2 untreated [MUT] was changed. After 24 h of treatment, the MDA-MB-231 cells were lysed with 2 ml of lysis buffer added to the [MUT] for 15 min at ambient temperature, then 2 ml were transferred into a tube and centrifuged at 2000 g for 5 min. The supernatant was then treated with RNaseA (20 μg/ml) and then with Proteinase K (used at 100 ug/ml), and placed at 70° C. for 15 min. The lysis buffer is a mixture of 50 mM 4-(2-hydroxyethyl)-1-piperazineethanesulfonic acid, 5 mM ethylenediaminetetraacetic acid, 150 mM sodium chloride, and 50 μg/ml digitonin. 1/10 volume of sodium acetate (NaAc) (3 M, pH 5.2) was then added. DNA was precipitated with 1 volume of isopropanol. The samples were left at ambient temperature for 15 min and then centrifuged at 20 000 g for 20 min at +4° C. The supernatant was aspirated and the pellet was washed with 75% ethanol. The pellet was dried and then resuspended in 30 μl of TE at pH 8 and analyzed in a fragment analyzer.

SMILES | concentration from which the flow cytometry method (annexin V) reaches a detection plateau (MOLM14 cells) | DNA fragments, a marker of cell death, in the cytoplasmic fraction (MDA-MB-231 cells)
COc1cc([C@@H]2c3cc4c(cc3[C@@H](O[C@@H]3O[C@@H]5CO[C@@H](C)O[C@H]5[C@H](O)[C@H]3O)[C@H]3COC(=O)[C@H]23)OCO4)cc(OC)c1O [etoposide] | ≥ 2.5 µM | 
CN[C@@H]1C[C@H]2O[C@@](C)([C@@H]1OC)n1c3ccccc3c3c4c(c5c6ccccc6n2c5c31)C(=O)NC4 [staurosporine] |  | detected; also recorded: increase in the quantity of DNA fragments
